Molecules are shown by their SMILES.

Type in all cases: in vivo
The test system of test [1] is ICH mice. Briefly: Brain infiltrating neutrophils by flow cytometry in ICH mouse model. The note with it: vs vehicle. An excerpt:
The intracerebral hemorrhage (ICH) model in mice was used to illustrate the protective benefits of the compounds of this disclosure, and FIG. 1 depicts the procedure in preparing this model. ICH was induced in C57 B/L6 male mice by the injection of an autologous blood or collagenase as previously described (Lauer et al., Circulation 124: 1654-1662 (2011); Rynkowski et al., Nat. Protoc. 3:122-128 (2008)). Mice were anesthetized using isoflurane inhalation and fixed on a stereotactic frame. A burr hole was drilled on the right side of the skull at 2.3 mm lateral to the midline and 0.5 mm anterior to the bregma. For the autologous blood model, 30 μl of non-heparinized blood was withdrawn from the angular vein. The first 5 μl blood was injected at a depth of 3 mm beneath the hole, and the rest 25 μl blood were injected at 3.7 mm beneath the hole with a rate of 1 μl/min. In the collagenase model, 0.038 U of the bacterial collagenase (in 0.5 μl saline) was infused to the striatum (0.5 mm anterior, 2.3 mm right lateral, and 3.5 mm deep relative to bregma) at a speed of 0.5 μl/min. […]
Single cell suspension of brain tissues was prepared and stained with fluorochrome-conjugated antibodies. […] Flow cytometric measurements were performed on a FACS Aria III (BD Bioscience) and analyzed using Flowjo 7.6 software (Informer Technologies, Ashland, OR, USA).
(In general: Flow cytometry measures light scatter and fluorescence of single cells or particles in a stream.)

Test [2] relates to ICH mice. Briefly: Neurological function assessment (mNSS, corner-turning test, rotarod test) in ICH mouse model. The note with it: vs vehicle. An excerpt:
(§1) The intracerebral hemorrhage (ICH) model in mice was used to illustrate the protective benefits of the compounds of this disclosure, and FIG. 1 depicts the procedure in preparing this model. ICH was induced in C57 B/L6 male mice by the injection of an autologous blood or collagenase as previously described (Lauer et al., Circulation 124: 1654-1662 (2011); Rynkowski et al., Nat. Protoc. 3:122-128 (2008)). Mice were anesthetized using isoflurane inhalation and fixed on a stereotactic frame. A burr hole was drilled on the right side of the skull at 2.3 mm lateral to the midline and 0.5 mm anterior to the bregma. For the autologous blood model, 30 μl of non-heparinized blood was withdrawn from the angular vein. The first 5 μl blood was injected at a depth of 3 mm beneath the hole, and the rest 25 μl blood were injected at 3.7 mm beneath the hole with a rate of 1 μl/min. In the collagenase model, 0.038 U of the bacterial collagenase (in 0.5 μl saline) was infused to the striatum (0.5 mm anterior, 2.3 mm right lateral, and 3.5 mm deep relative to bregma) at a speed of 0.5 μl/min. Mice on the sham control were injected with an equal volume of saline. Throughout the procedure, the body temperature was maintained at 37° C. with a homeothermic blanket. […]
The neurological function assessment was performed by investigators who were blinded to the two treatment groups. The modified Neurological Severity Score (mNSS), corner-turning test, and rotarod test were conducted to evaluate the neuro-deficits of the ICH mice at defined time points as described (Li et al., Proc. Nat. Acad. Sci. USA 114:E396-E405 (2017)). mice were evaluated for motor function (muscle and abnormal movement), sensory (visual, tactile, and proprioceptive), and reflexes (pinna, corneal, startle reflexes). […] The corner-turning test was used to evaluate the sensorimotor damage to quantify the turning preference (right or left) upon approaching a 30° corner. […] The percentage of ipsilateral turns was then calculated. […] The duration of each mouse on the rod was recorded. […]
(In the rotarod test animals must keep their balance on a rotating rod.)

In test [3] the test system is ICH mice. Briefly: Brain water content in ICH mouse model. The settings on record: 5 mg/kg/daily i.p., first dose 1 h after ICH onset, 24 h, vs vehicle.
Source text: as §1, with “blanket. After the surgery, mice were under observation with free access to food and water.” for “blanket.”
Brain water content was measured at day 1 after ICH. […]

The mark [4] stands for this setting: day 1 and day 3 after ICH, 5 mg/kg i.p.

Regarding `Cc1ccc(O)c(-c2[nH]nc3c2C(c2ccc(C(F)(F)F)cc2)N(C2CCOCC2)C3=O)c1` (racemic) [Compound 1, Rac-3-(2-hydroxy-5-methylphenyl)-5-(tetrahydro-2H-pyran-4-yl)-4-(4-(trifluoromethyl)phenyl)-4,5-dihydropyrrolo[3,4-c]pyrazol-6(2H)-one], the “reduction of total number of brain-infiltrated neutrophils” value with ICH mice [1] (Day 3, 5 mg/kg i.p.) is 54%. In addition, the “reduction of total number of brain-infiltrated neutrophils” value in the test on ICH mice [1] (Day-1, 5 mg/kg i.p.) amounted to 47%. In addition, in the test on ICH mice [2] (5 mg/kg/daily i.p., first dose 1 h after ICH onset), the neurological outcomes was “improved”. Also, in the test with ICH mice [2] (setting [4]), the “locomotor function scores (corner turn test, rotarod test)” value is “improved” and the “modified neurological symptom score (mNSS)” value is on record as “improved”. The “total brain water content” value in the test with ICH mice [3] is recorded as “significantly reduced”.

For the origin of these results see US20240109897A1, “MODULATORS OF FPR1 AND METHODS OF USING THE SAME” (BEIJING TIANTAN HOSPITAL, priority 2021, published 2024).
